Assay results from patent US20150315211A1, “SMALL MOLECULES FOR THE MODULATION OF MCL-1 AND METHODS OF MODULATING CELL DEATH, CELL DIVISION, CELL DIFFERENTIATION AND METHODS OF TREATING DISORDERS” (priority 2010, published 2015).
Where two headings read alike, the source gives them in different places.

Tests used:
MCL-1ΔNΔC [1] = target: MCL-1ΔNΔC (Homo sapiens, UniProt Q07820); experiment: High-throughput competitive FP binding screen, FITC-MCL-1 SAHB/MCL-1ΔNΔC interaction; design: the C-terminal alpha-helix was deleted from each of these constructs; GST (N, cleaved yes); made in house
MCL-1ΔNΔC [2] = experiment: as above
BCL-XLΔC = BCL-XLΔC (Homo sapiens, UniProt Q07817); experiment: High-throughput competitive FP binding screen, FITC-BAD BH3/BCL-XLΔC interaction
[3] = FITC-MCL-1 SAHB/MCL-1ΔNΔC interaction pair, competitive FP screen
[4] = selectivity for MCL-1ΔNΔC over BCL-XLΔC targeting (BCL-XL % Bound minus MCL-1 % Bound)
[5] = FITC-BAD BH3/BCL-XLΔC interaction pair, competitive FP screen

Chain of MCL-1ΔNΔC (Homo sapiens, UniProt Q07820) (Q07820 172-320 limits assumed, stated change not applied): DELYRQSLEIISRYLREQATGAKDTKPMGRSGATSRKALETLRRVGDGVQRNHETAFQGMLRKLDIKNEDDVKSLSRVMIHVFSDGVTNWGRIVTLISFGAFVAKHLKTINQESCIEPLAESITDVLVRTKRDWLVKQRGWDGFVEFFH
Chain of BCL-XLΔC (Q07817 1-212 limits assumed, stated change not applied): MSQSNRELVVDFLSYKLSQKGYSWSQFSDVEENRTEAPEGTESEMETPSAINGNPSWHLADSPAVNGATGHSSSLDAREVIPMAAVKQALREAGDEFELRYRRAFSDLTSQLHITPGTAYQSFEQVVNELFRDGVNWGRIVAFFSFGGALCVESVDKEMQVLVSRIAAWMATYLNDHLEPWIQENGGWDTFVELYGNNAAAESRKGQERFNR

| SMILES | MCL-1% Bound (MCL-1ΔNΔC [1]) | Spec Values (MCL-1ΔNΔC [2]) | BCL-XL % Bound (BCL-XLΔC) | MCL-1% Bound (MCL-1ΔNΔC [1]; [3]) | Spec Values (MCL-1ΔNΔC [2]; [4]) | BCL-XL % Bound (BCL-XLΔC; [5]) |
| --- | --- | --- | --- | --- | --- | --- |
| Oc1c(Cl)cc(Cl)c(Cl)c1Cc1c(O)c(Cl)cc(Cl)c1Cl [drawing 274] | 41.01% | 59.35 | 100.4% | – | – | – |
| COc1ccc(C2=CC(=O)C=CC2=O)cc1 | – | – | – | 35.4% | 56.64 | 92.03% |
| N#CC(C#N)=C(C#N)c1ccc(-c2ccccc2)[nH]1 | – | – | – | 35.11% | 55.59 | 90.7% |
| N#CC1=C(c2ccc(Cl)cc2)C2CSc3ccccc3C2NC1=O (stereo not drawn) | – | – | – | 19.37% | 68.29 | 87.67% |
| Fc1ccccc1OCCSc1nnc2c(n1)[nH]c1ccccc12 | – | – | – | 45.2% | 54.35 | 99.56% |
| CC1CCN(C2=NN3C(=N)C(Cc4ccc(SCc5ccco5)o4)C(=O)N=C3S2)CC1 (stereo not drawn) | – | – | – | 14.3% | 70.38 | 84.68% |
| N#C/C(=C/c1ccc(-c2ccc(C(=O)O)cc2)o1)c1ccc(Cl)cc1 | – | – | – | 35.83% | 46.64 | 82.47% |
| O=C(NN=C1CCCC1)c1ccccc1NS(=O)(=O)c1cccs1 | – | – | – | 29.27% | 63.07 | 92.34% |
| CCCCc1c(C)sc(NC(=S)Nn2cnnc2)c1C(=O)OCC | – | – | – | 4.578% | 64.95 | 69.53% |
| N#C/C(=C\c1ccc(O)c(O)c1)C(N)=S [drawing 16] | 34.55% | 66.21 | 100.8% | – | – | – |
| Cc1cc2nc(N3CCC(C)CC3)c3ccccc3n2n1 | – | – | – | −1.786% | 108.5 | 106.7% |
| O=C1C=CC(=O)C(Sc2nnnn2-c2ccccc2)=C1 | – | – | – | 45.56% | 55.69 | 101.3% |
| O=C1COc2ccc(-c3cs/c(=N\c4ccc(F)cc4)n3/N=C/c3ccc(O)c(O)c3)cc2N1 | – | – | – | 39.12% | 58.52 | 97.64% |
| Cc1ccc2c(c1)CC[C@H]1C3CC[C@H](NCCCCCCN4C(=O)C=CC4=O)[C@@]3(C)CC[C@H]21 (stereo partly drawn) [U73122, reference compound] | – | – | – | 56.6% | 49.67 | 106.3% |
| CCOC(=O)c1cc(CC)sc1NC(=O)C=C(C)C | – | – | – | 24.13% | 66 | 90.12% |
| COc1ccc(C(Nc2cc(C)ccn2)c2ccc3cccnc3c2O)cc1O (stereo not drawn) | – | – | – | 27.17% | 65.85 | 93.02% |
| CCOC(=O)c1c(N2C(=O)C3C4C=CC(O4)C3C2=O)sc2c1CCCC2 (stereo not drawn) | – | – | – | 48.27% | 47.7 | 95.97% |
| CC(/N=C/c1cccc(O)c1O)c1ccccc1 (stereo not drawn) | – | – | – | 40.42% | 53.29 | 93.71% |
| O=C(CCN1C(=O)/C(=C\C=C\c2ccco2)SC1=S)Nc1ccc(C(=O)O)c(O)c1 | – | – | – | 21.54% | 54.54 | 76.09% |
| Cc1cccc(NC(=O)CSc2nncc(=O)[nH]2)c1 | – | – | – | 27.28% | 55 | 82.27% |

| SMILES | MCL-1% Bound (MCL-1ΔNΔC [1]) | Spec Values (MCL-1ΔNΔC [2]) | BCL-XL % Bound (BCL-XLΔC) | MCL-1% Bound (MCL-1ΔNΔC [1]; [3]) | Spec Values (MCL-1ΔNΔC [2]; [4]) | BCL-XL % Bound (BCL-XLΔC; [5]) |
| --- | --- | --- | --- | --- | --- | --- |
| O=C1CSCC(=O)N1c1cc(C(F)(F)F)cc(C(F)(F)F)c1 | – | – | – | 45.62% | 56.05 | 101.7% |
| CCN(CC)c1ccc2cc(C(N)=O)/c(=N\NC(=O)c3ccccc3)oc2c1 | – | – | – | −6.592% | 135.9 | 129.3% |
| C=CCN1C(=O)/C(=C\c2ccc(N(CC)CC)cc2)C(=O)NC1=S | 41.82% | 60.35 | 102.2% | – | – | – |
| Cc1nc2c(C(=O)NCc3ccccc3Cl)cnn2c(O)c1Cl | – | – | – | 31.4% | 63.02 | 94.42% |
| O=C(CSc1nnc(-c2ccco2)c(-c2ccco2)n1)N1c2ccccc2Sc2ccc(Cl)cc21 | – | – | – | 37.6% | 60.7 | 98.3% |
| CN1CCN(C(c2ccccn2)c2c(-c3ccccc3)n(O)c3ccccc23)CC1 (stereo not drawn) | – | – | – | 50.55% | 49.28 | 99.83% |
| Cc1ccccc1-c1nnc(SCC(=O)NC(=O)Nc2ccccc2F)n1C | – | – | – | 39.52% | 58.58 | 98.1% |
| COC(=O)c1c(NC(=S)Nn2cnnc2)sc2c1CCC(C)C2 (stereo not drawn) | – | – | – | 25.26% | 52.28 | 77.55% |
| C=CCN1C(=O)/C(=C\c2ccc(OC)cc2)C(=O)NC1=S | 19.08% | 76 | 95.09% | – | – | – |
| CC(C)CN1C(=O)/C(=C\c2ccc(-c3ccc(S(N)(=O)=O)cc3)o2)SC1=S | – | – | – | 58.51% | 47.35 | 105.9% |
| O=C(Nc1ccccc1)C(C(F)(F)F)C(F)(F)F | – | – | – | 11.98% | 70.63 | 82.61% |
| CCCN1C(=O)/C(=C/c2ccc(-c3cccc(C(F)(F)F)c3)o2)NC1=S | – | – | – | 27.93% | 57.72 | 85.65% |
| Cc1occc1-c1nnc2n1N=C(c1ccc(-c3cc(Cl)ccc3Cl)o1)CS2 | – | – | – | 22.98% | 81.03 | 104% |
| COc1cccc(OCc2nnc(SCc3ccccc3)n2C)c1 | – | – | – | 46.56% | 50.95 | 97.51% |
| CCOC(=O)c1ccc2nc(NC(=O)CSc3nc(C)cc(=O)[nH]3)sc2c1 | – | – | – | 56.55% | 49.78 | 106.3% |
| Cc1ccc(C2=NC(=O)/C(=C/c3cc(O)c(O)c(Br)c3)S2)cc1 | – | – | – | 2.607% | 93.98 | 96.59% |
| CN1C(=O)C2(NN=C(c3ccccc3)S2)c2cc(Br)ccc21 (stereo not drawn) | – | – | – | 18.57% | 63.14 | 81.72% |
| CCOC(=O)c1ccc(-c2ccc(/C=C3\S/C(=N\N=C4/C(=O)Nc5ccccc54)NC3=O)o2)cc1 | – | – | – | 13.28% | 53.34 | 66.63% |
| O=C(NCc1ccco1)c1ccc(-c2cc3ccccc3oc2=O)cc1 | – | – | – | 67.95% | 47.79 | 115.7% |
| O=c1c(O)c(-c2cc(O)c(O)c(O)c2)oc2cc(O)cc(O)c12 [drawing 14] | – | – | – | 34.13% | 68.23 | 102.4% |

| SMILES | MCL-1% Bound (MCL-1ΔNΔC [1]) | Spec Values (MCL-1ΔNΔC [2]) | BCL-XL % Bound (BCL-XLΔC) | MCL-1% Bound (MCL-1ΔNΔC [1]; [3]) | Spec Values (MCL-1ΔNΔC [2]; [4]) | BCL-XL % Bound (BCL-XLΔC; [5]) |
| --- | --- | --- | --- | --- | --- | --- |
| COc1ccc2c(c1)CC[C@@H]1C2CC[C@@]2(C)C1CC[C@@H]2NCCCCCCN1C(=O)CCC1=O (stereo partly drawn) [drawing 365] | – | – | – | 56.6% | 49.67 | 106.3% |
| CCCCSC1=C(C#N)C(=O)NC(c2ccco2)S1 (stereo not drawn) | – | – | – | 18.96% | 73.94 | 92.91% |
| COc1ccc(/C=c2\s/c(=C\C(=O)c3ccco3)[nH]c2=O)cc1O | – | – | – | 215.6% | 48.14 | 263.7% |
| Oc1ccc(CNc2ccccc2O)cc1 | – | – | – | 36.26% | 53.12 | 89.38% |
| CC1=C(C)C/S(=N\S(=O)(=O)c2ccc(Cl)cc2)N(S(=O)(=O)c2ccc(Cl)cc2)C1 (stereo not drawn) | – | – | – | 50.42% | 49.76 | 100.2% |
| O=C(c1ccccc1)c1nc2ccccc2oc1=O | – | – | – | −19.61% | 62.88 | 43.27% |
| CC(C)CNC(=O)CCc1nc(-c2ccccc2)no1 | – | – | – | 37.48% | 54.73 | 92.21% |
| CCSC1=C(C#N)C(=O)NC(c2ccc(O)cc2)S1 (stereo not drawn) | – | – | – | 15.17% | 69.65 | 84.82% |
| COC(=O)/C=C1/OC(c2ccc(Cl)cc2)=CC1=O | – | – | – | 21.79% | 75.38 | 97.17% |
| c1ccc(-c2ccc3c(c2)c2c4n3CCN=C4CCC2)cc1 | – | – | – | 20.34% | 47.9 | 68.24% |
| CCc1ccc(C=C2C(=O)N(C)C(=S)N(C)C2=O)cc1 | 55.45% | 45.4 | 100.9% | – | – | – |
| O=C1C2=C(C(=O)c3ccccc31)C(c1ccccc1O)c1sc(=O)[nH]c1S2 (stereo not drawn) | – | – | – | 30.41% | 58.45 | 88.86% |
| CCCCC(=O)Cc1ccco1 | – | – | – | 40.94% | 62.08 | 103% |
| O=C1C=CC(=O)C(CCC2=CC(=O)C=CC2=O)=C1 | – | – | – | 31.21% | 61.8 | 93.01% |
| Cc1nn(-c2ccccc2)c2nc3ccccc3c(N3CCOCC3)c12 | – | – | – | 47.31% | 50.97 | 98.28% |
| Cc1cccc(CSc2ccc(-c3ccco3)nn2)c1 | – | – | – | 44.76% | 50.6 | 95.36% |
| CCOC(=O)C1=C(NC(=O)c2ccccc2)S/C(=C\c2ccc(C)o2)C1=O | – | – | – | 43.16% | 58.06 | 101.2% |
| O=C1NC(=O)N(CCC2=CCCCC2)C(=O)/C1=C/c1cnc(-c2ccccc2)nc1 [drawing 98] | 43.51% | 63.4 | 106.9% | – | – | – |
| N#C/C(=C\c1ccc(O)c(O)c1)C(N)=S [Tyrphostin 47, reference compound] | 34.55% | 66.21 | 100.8% | – | – | – |
